These results are taken from the SangsterLogP compilation.

As a reminder, the logP is a log measure of how a compound divides between an organic and an aqueous phase. A low value points to lower lipophilicity. In turn, `Oc1ccc(C=Cc2ccc3c(Cl)cc(Cl)c(O)c3n2)cc1` yielded a logP of 5.72.
Consider `CCOc1ccccc1C=Cc1ccc2cccc(O)c2n1`, for which the logP is 4.8.
The value for `Oc1ccc(C=Cc2ccc3cccc(O)c3n2)c(O)c1` was 3.67; that for `Oc1c(Cl)cc(Cl)c2ccc(C=Cc3ccc(C=Cc4ccc5c(Cl)cc(Cl)c(O)c5n4)cc3)nc12` was 9.69; that for `CCOc1ccccc1C=Cc1ccc2c(Cl)cc(Cl)c(O)c2n1` was 6.28.
For `Clc1ccccc1C=Cc1ccc2cccc(Cl)c2n1` the value was 5.69.
`Oc1cc(O)cc(C=Cc2ccc3c(Cl)cc(Cl)c(O)c3n2)c1`: the logP came out at 5.44.
The value for `CCOc1ccc(C=Cc2ccc3cccc(O)c3n2)cc1` was 4.75; that for `Oc1ccc(C=Cc2ccc3c(Cl)cc(Cl)c(O)c3n2)cc1O` was 5.55.
As for `Oc1c(Cl)cc(Cl)c2ccc(C=Cc3ccccc3Cl)nc12`, the logP amounted to 6.49.
For `Oc1ccccc1C=Cc1ccc2c(Cl)cc(Cl)c(O)c2n1` the value was 5.35.
`Oc1ccc(C=Cc2ccc3c(Cl)cc(Cl)c(O)c3n2)c(O)c1`: the logP was 5.17.
`CCOc1ccc(C=Cc2ccc3c(Cl)cc(Cl)c(O)c3n2)cc1` gave a logP of 6.25.
For `Oc1cccc(C=Cc2ccc3cccc(O)c3n2)c1` the value was 4.18; for `Oc1ccccc1C=Cc1ccc2ccccc2n1`, 4.48.
For `Oc1cccc2ccc(C=Cc3ccccc3Cl)nc12` the value was 4.99.
